Experimental data published in the supplement of paper PMC4862054.

Legend:
Settings in all cases: incubation time: 72 h
HCC1143 [1] = assay: normalised response (% of control), CellTiter-Glo; higher = more viable cells (100 = DMSO, 0 = benzethonium chloride kill control)
Outline: (§1)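 Each entry is the normalised signal at a single concentration within a series. The series comprised 5 concentrations in 10-fold steps over a compound-specific 10,000-fold range, placed in 384-well plates into which breast cancer cell lines were seeded as 20 µl suspension and incubated 72 h. CellTox Green (485/520 nm) fluorescence and then CellTiter-Glo luminescence were read, with signals normalised per plate to 0.1 % DMSO (100) and a positive kill control (0).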

SK-BR-3 = assay: as above
Outline: as §1

CAL-148 [2] = assay: as above
Outline: as §1

Hs578T [3] = assay: as above
Outline: as §1

MCF-10A [4] = assay: as above
Outline: as §1

CAL-51 [5] = assay: as above
Outline: as §1

CAL-85-1 [6] = assay: as above
Outline: as §1

MDA-MB-468 [7] = assay: as above
Outline: as §1

BT-474 [8] = assay: as above
Outline: as §1

MDA-MB-436 [9] = assay: as above
Outline: as §1

MDA-MB-453 [10] = assay: as above
Outline: as §1

HCC1599 [11] = assay: as above
Outline: as §1

MDA-MB-231 [12] = assay: as above
Outline: as §1

DU-4475 [13] = assay: as above
Outline: as §1

CAL-120 [14] = assay: as above
Outline: as §1

HCC1937 [15] = assay: as above
Outline: as §1

HDQ-P1 [16] = assay: as above
Outline: as §1

MFM-223 [17] = assay: as above
Outline: as §1

BT-549 [18] = assay: as above
Outline: as §1

HCC1143 [19] = assay: normalised response (% of control), CellTox Green; higher = less cell death (100 = DMSO, 0 = benzethonium chloride kill control)
Outline: as §1

CAL-148 [20] = assay: as above
Outline: as §1

Hs578T [21] = assay: as above
Outline: as §1

MCF-10A [22] = assay: as above
Outline: as §1

CAL-51 [23] = assay: as above
Outline: as §1

CAL-85-1 [24] = assay: as above
Outline: as §1

MDA-MB-468 [25] = assay: as above
Outline: as §1

BT-474 [26] = assay: as above
Outline: as §1

MDA-MB-436 [27] = assay: as above
Outline: as §1

MDA-MB-453 [28] = assay: as above
Outline: as §1

HCC1599 [29] = assay: as above
Outline: as §1

MDA-MB-231 [30] = assay: as above
Outline: as §1

DU-4475 [31] = assay: as above
Outline: as §1

CAL-120 [32] = assay: as above
Outline: as §1

HDQ-P1 [33] = assay: as above
Outline: as §1

MFM-223 [34] = assay: as above
Outline: as §1

BT-549 [35] = assay: as above
Outline: as §1

HCC1937 [36] = assay: as above
Outline: as §1

Compound: C=CC(=O)Nc1cc2c(Nc3ccc(F)c(Cl)c3)ncnc2cc1OCCCN1CCOCC1 [Canertinib] (1000 nM)
- normalised response (HCC1143 [1]): 91.5%
- normalised response (SK-BR-3): 27.2%
- normalised response (CAL-148 [2]): 75.3%
- normalised response (Hs578T [3]): 104%
- normalised response (MCF-10A [4]): 32.2%
- normalised response (CAL-51 [5]): 62.2%
- normalised response (CAL-85-1 [6]): 49.2%
- normalised response (MDA-MB-468 [7]): 62%
- normalised response (BT-474 [8]): 76.8%
- normalised response (MDA-MB-436 [9]): 90.5%
- normalised response (MDA-MB-453 [10]): 73.6%
- normalised response (HCC1599 [11]): 81.2%
- normalised response (MDA-MB-231 [12]): 78%
- normalised response (DU-4475 [13]): 101%
- normalised response (CAL-120 [14]): 94.2%
- normalised response (HCC1937 [15]): 88.1%
- normalised response (HDQ-P1 [16]): 67.4%
- normalised response (MFM-223 [17]): 95%
- normalised response (BT-549 [18]): 80.1%
- normalised response (HCC1143 [19]): 102%
- normalised response (CAL-148 [20]): 100%
- normalised response (Hs578T [21]): 109%
- normalised response (MCF-10A [22]): 80.4%
- normalised response (CAL-51 [23]): 93.2%
- normalised response (CAL-85-1 [24]): 73.3%
- normalised response (MDA-MB-468 [25]): 140%
- normalised response (BT-474 [26]): 83.2%
- normalised response (MDA-MB-436 [27]): 88.9%
- normalised response (MDA-MB-453 [28]): 102%
- normalised response (HCC1599 [29]): 114%
- normalised response (MDA-MB-231 [30]): 104%
- normalised response (DU-4475 [31]): 104%
- normalised response (CAL-120 [32]): 97.7%
- normalised response (HDQ-P1 [33]): 97.2%
- normalised response (MFM-223 [34]): 106%
- normalised response (BT-549 [35]): 135%

Compound: Nc1ccccc1NC(=O)c1ccc(CNC(=O)OCc2cccnc2)cc1 [Entinostat] (1000 nM)
- normalised response (HCC1143 [1]): 98.1%
- normalised response (SK-BR-3): 88.8%
- normalised response (CAL-148 [2]): 93.7%
- normalised response (Hs578T [3]): 86.8%
- normalised response (MCF-10A [4]): 142%
- normalised response (CAL-51 [5]): 45.2%
- normalised response (CAL-85-1 [6]): 105%
- normalised response (MDA-MB-468 [7]): 91.4%
- normalised response (BT-474 [8]): 92.4%
- normalised response (MDA-MB-436 [9]): 90.5%
- normalised response (MDA-MB-453 [10]): 89.8%
- normalised response (HCC1599 [11]): 83.6%
- normalised response (MDA-MB-231 [12]): 93.2%
- normalised response (DU-4475 [13]): 102%
- normalised response (CAL-120 [14]): 97%
- normalised response (HCC1937 [15]): 87.8%
- normalised response (HDQ-P1 [16]): 93.5%
- normalised response (MFM-223 [17]): 98.2%
- normalised response (BT-549 [18]): 62.1%
- normalised response (CAL-148 [20]): 98.3%
- normalised response (Hs578T [21]): 75%
- normalised response (MCF-10A [22]): 90.1%
- normalised response (CAL-51 [23]): 70.2%
- normalised response (CAL-85-1 [24]): 107%
- normalised response (MDA-MB-468 [25]): 65.9%
- normalised response (BT-474 [26]): 99.8%
- normalised response (MDA-MB-436 [27]): 86.4%
- normalised response (MDA-MB-453 [28]): 102%
- normalised response (HCC1599 [29]): 90.1%
- normalised response (MDA-MB-231 [30]): 108%
- normalised response (DU-4475 [31]): 99.9%
- normalised response (CAL-120 [32]): 102%
- normalised response (HCC1937 [36]): 116%
- normalised response (HDQ-P1 [33]): 109%
- normalised response (MFM-223 [34]): 90.1%
- normalised response (BT-549 [35]): 114%
